Molecules are shown by their SMILES. pIC50: −log10 of the molar value. Activity calls are given as the source filed them. The calls are words filed in the database; no cut-off is given here.

Assay [1] concerns 786-0. Description: Cytotoxicity against human 786-O cells after 72 hrs by CCK-8 assay. The following applies: 786-0, 72 h. The format is functional, cell-based. On the technique in general: Tetrazolium assays rely on reduction of a dye to a coloured formazan, in cell work by metabolically active cells.
The next assay deals with ACHN. Briefly: Cytotoxicity against human ACHN cells after 72 hrs by CCK-8 assay. The format is functional, cell-based.
A further assay relates to OS-RC-2. Briefly: Cytotoxicity against human OS-RC2 cells after 72 hrs by CCK-8 assay. Type of assay: functional, cell-based. The note with it: OS-RC-2, 72 h.
For assay [2], the system named is 786-0. Description: Cell cycle arrest in human 786-O cells at 2.5 to 10 uM after 24 hrs by […] based flow cytometry. Type of assay: functional. A general note: In flow cytometry, cells or beads pass a laser one at a time.
For assay [3], the system named is 786-0. Briefly: Induction of apoptosis in human 786-O cells assessed as necrotic cells at 2.5 uM after 48 hrs by annexin V-FITC/propidium iodide staining based flow cytometry (reference value: 0%). Type of assay: functional.
Assay [4] concerns 786-0. Description: Induction of apoptosis in human 786-O cells assessed as early apoptotic cells at 2.5 uM after 24 hrs by annexin V-FITC/propidium iodide staining based flow cytometry (reference value: 0%). The format is functional.
For assay [5], the system named is 786-0. Description: Induction of apoptosis in human 786-O cells assessed as necrotic cells at 5 uM after 24 hrs by annexin V-FITC/propidium iodide staining based flow cytometry (reference value: 0%). The format is functional.
Assay [6] has as its system 786-0. Briefly: Induction of apoptosis in human 786-O cells assessed as viable cells at 10 uM after 48 hrs by annexin V-FITC/propidium iodide staining based flow cytometry (reference value: 100%). The note with it: 786-0, 48 h, read-out: Activity. The format is functional.
Assay [7] relates to 786-0. Briefly: Induction of apoptosis in human 786-O cells assessed as viable cells at 5 uM after 24 hrs by annexin V-FITC/propidium iodide staining based flow cytometry (reference value: 100%). Type of assay: functional. The following applies: 786-0, 24 h, read-out: Activity.
Assay [8] concerns 786-0. Briefly: Induction of apoptosis in human 786-O cells assessed as late apoptotic cells at 2.5 uM after 24 hrs by annexin V-FITC/propidium iodide staining based flow cytometry (reference value: 0%). The format is functional.
Assay [9] deals with 786-0. Briefly: Induction of apoptosis in human 786-O cells assessed as late apoptotic cells at 5 uM after 48 hrs by annexin V-FITC/propidium iodide staining based flow cytometry (reference value: 0%). The format is functional.
Assay [10] relates to 786-0. Briefly: Induction of apoptosis in human 786-O cells assessed as necrotic cells at 5 uM after 72 hrs by annexin V-FITC/propidium iodide staining based flow cytometry (reference value: 0%). Type of assay: functional.
Assay [11] deals with 786-0. Description: Induction of apoptosis in human 786-O cells assessed as viable cells at 2.5 uM after 48 hrs by annexin V-FITC/propidium iodide staining based flow cytometry (reference value: 100%). The format is functional. The following applies: 786-0, 48 h, read-out: Activity.
Assay [12] has as its system 786-0. Briefly: Induction of apoptosis in human 786-O cells assessed as late apoptotic cells at 10 uM after 24 hrs by annexin V-FITC/propidium iodide staining based flow cytometry (reference value: 0%). Type of assay: functional.
For assay [13], the system named is 786-0. Description: Induction of apoptosis in human 786-O cells assessed as late apoptotic cells at 5 uM after 72 hrs by annexin V-FITC/propidium iodide staining based flow cytometry (reference value: 0%). The format is functional.
Assay [14] deals with 786-0. Description: Induction of apoptosis in human 786-O cells assessed as late apoptotic cells at 10 uM after 72 hrs by annexin V-FITC/propidium iodide staining based flow cytometry (reference value: 0%). The format is functional.
Assay [15] relates to 786-0. Description: Induction of apoptosis in human 786-O cells assessed as early apoptotic cells at 2.5 uM after 48 hrs by annexin V-FITC/propidium iodide staining based flow cytometry (reference value: 0%). Type of assay: functional.
Assay [16] has as its system 786-0. Briefly: Induction of apoptosis in human 786-O cells assessed as viable cells at 10 uM after 72 hrs by annexin V-FITC/propidium iodide staining based flow cytometry (reference value: 100%). The format is functional. The note with it: 786-0, 72 h, read-out: Activity.
In assay [17] the test system is 786-0. Briefly: Induction of apoptosis in human 786-O cells assessed as viable cells at 10 uM after 24 hrs by annexin V-FITC/propidium iodide staining based flow cytometry (reference value: 100%). The format is functional. The note with it: 786-0, 24 h, read-out: Activity.
The test system of assay [18] is 786-0. Description: Induction of apoptosis in human 786-O cells assessed as viable cells at 2.5 uM after 24 hrs by annexin V-FITC/propidium iodide staining based flow cytometry (reference value: 100%). The note with it: 786-0, 24 h, read-out: Activity. Type of assay: functional.
The test system of assay [19] is 786-0. Briefly: Induction of apoptosis in human 786-O cells assessed as viable cells at 2.5 uM after 72 hrs by annexin V-FITC/propidium iodide staining based flow cytometry (reference value: 100%). The following applies: 786-0, 72 h, read-out: Activity. The format is functional.
In assay [20] the test system is 786-0. Description: Induction of apoptosis in human 786-O cells assessed as early apoptotic cells at 5 uM after 48 hrs by annexin V-FITC/propidium iodide staining based flow cytometry (reference value: 0%). The format is functional.
Assay [21] deals with 786-0. Description: Induction of apoptosis in human 786-O cells assessed as early apoptotic cells at 5 uM after 24 hrs by annexin V-FITC/propidium iodide staining based flow cytometry (reference value: 0%). Type of assay: functional.
Assay [22] relates to 786-0. Description: Induction of apoptosis in human 786-O cells assessed as early apoptotic cells at 10 uM after 48 hrs by annexin V-FITC/propidium iodide staining based flow cytometry (reference value: 0%). The format is functional.
Assay [23] relates to 786-0. Briefly: Induction of apoptosis in human 786-O cells assessed as viable cells at 5 uM after 72 hrs by annexin V-FITC/propidium iodide staining based flow cytometry (reference value: 100%). Type of assay: functional. The following applies: 786-0, 72 h, read-out: Activity.
Assay [24] deals with 786-0. Briefly: Induction of apoptosis in human 786-O cells assessed as early apoptotic cells at 5 uM after 72 hrs by annexin V-FITC/propidium iodide staining based flow cytometry (reference value: 0%). Type of assay: functional.
For assay [25], the system named is 786-0. Briefly: Induction of apoptosis in human 786-O cells assessed as necrotic cells at 10 uM after 72 hrs by annexin V-FITC/propidium iodide staining based flow cytometry (reference value: 0%). The format is functional.
Assay [26] has as its system 786-0. Description: Induction of apoptosis in human 786-O cells assessed as late apoptotic cells at 10 uM after 48 hrs by annexin V-FITC/propidium iodide staining based flow cytometry (reference value: 0%). Type of assay: functional.
Assay [27] has as its system 786-0. Briefly: Induction of apoptosis in human 786-O cells assessed as late apoptotic cells at 5 uM after 24 hrs by annexin V-FITC/propidium iodide staining based flow cytometry (reference value: 0%). The format is functional.
The subject of assay [28] is 786-0. Briefly: Induction of apoptosis in human 786-O cells assessed as early apoptotic cells at 2.5 uM after 72 hrs by annexin V-FITC/propidium iodide staining based flow cytometry (reference value: 0%). The format is functional.
The test system of assay [29] is 786-0. Description: Induction of apoptosis in human 786-O cells assessed as necrotic cells at 10 uM after 48 hrs by annexin V-FITC/propidium iodide staining based flow cytometry (reference value: 0%). Type of assay: functional.
Assay [30] concerns 786-0. Description: Induction of apoptosis in human 786-O cells assessed as necrotic cells at 5 uM after 48 hrs by annexin V-FITC/propidium iodide staining based flow cytometry (reference value: 0%). The format is functional.
Assay [31] relates to 786-0. Description: Induction of apoptosis in human 786-O cells assessed as necrotic cells at 10 uM after 24 hrs by annexin V-FITC/propidium iodide staining based flow cytometry (reference value: 0%). The format is functional.
Assay [32] concerns 786-0. Description: Induction of apoptosis in human 786-O cells assessed as necrotic cells at 2.5 uM after 24 hrs by annexin V-FITC/propidium iodide staining based flow cytometry (reference value: 0%). Type of assay: functional.
The subject of assay [33] is 786-0. Briefly: Induction of apoptosis in human 786-O cells assessed as early apoptotic cells at 10 uM after 72 hrs by annexin V-FITC/propidium iodide staining based flow cytometry (reference value: 0%). The format is functional.
The subject of assay [34] is 786-0. Description: Induction of apoptosis in human 786-O cells assessed as late apoptotic cells at 2.5 uM after 48 hrs by annexin V-FITC/propidium iodide staining based flow cytometry (reference value: 0%). Type of assay: functional.
Assay [35] deals with 786-0. Briefly: Induction of apoptosis in human 786-O cells assessed as early apoptotic cells at 10 uM after 24 hrs by annexin V-FITC/propidium iodide staining based flow cytometry (reference value: 0%). The format is functional.
The subject of assay [36] is 786-0. Briefly: Induction of apoptosis in human 786-O cells assessed as late apoptotic cells at 2.5 uM after 72 hrs by annexin V-FITC/propidium iodide staining based flow cytometry (reference value: 0%). Type of assay: functional.
Assay [37] relates to 786-0. Briefly: Induction of apoptosis in human 786-O cells assessed as viable cells at 5 uM after 48 hrs by annexin V-FITC/propidium iodide staining based flow cytometry (reference value: 100%). The format is functional. The note with it: 786-0, 48 h, read-out: Activity.
The subject of assay [38] is 786-0. Description: Induction of apoptosis in human 786-O cells assessed as necrotic cells at 2.5 uM after 72 hrs by annexin V-FITC/propidium iodide staining based flow cytometry (reference value: 0%). Type of assay: functional.

What is called pIC50 is the IC50 on a negative log10 scale, so that one unit is a factor of ten. The low end stands for a high IC50, the high end for a low IC50. On to `CC[C@H](C)/C=C(C)/C=C/C1=CC2=C(Cl)C(=O)[C@](C)(O)[C@@H](O)[C@H]2CO1`, for which the negative-log IC50 (pIC50) in the assay with 786-0 [1] is 4.32; with ACHN, under 4.30; in the assay with OS-RC-2 it was 5.31.

As for `CC[C@H](C)/C=C(C)/C=C/C1=CC2=C(Cl)[C@H](OC)[C@]3(C)O[C@](C)(OC)[C@H](C(C)=O)[C@H]3C2=CO1`, the values for the pIC50 in the assay with 786-0 [1], in the assay with ACHN and in the assay with OS-RC-2 were 4.42, under 4.30 and 4.36, respectively.

Consider `CC[C@H](C)/C=C(C)/C=C/C1=CC2=C(Cl)C(=O)[C@](C)(O)[C@@H](CC(C)=O)C2=CO1`, for which the negative-log IC50 (pIC50) is 5.52 with 786-0 [1], 5.36 with ACHN and 5.41 in the assay with OS-RC-2.

Regarding `CC[C@H](C)/C=C(C)/C=C/C1=CC2=C(Cl)[C@H](O)[C@]3(C)OC(=O)[C@H](C(C)=O)[C@H]3C2=CO1`, the figures for the pIC50 in the assay on 786-0 [1], in the assay on ACHN and in the assay with OS-RC-2 were 4.47, 4.57 and 4.35, respectively.

`CC[C@H](C)/C=C(C)/C=C/C1=CC2=C(Cl)[C@H](OC)[C@]3(C)O[C@@](C)(OC)[C@H](C(C)=O)[C@H]3C2=CO1`: in the assay on 786-0 [2], the result was inactive. For the same molecule, the Activity is 2.5% with 786-0 [3]; 0.8% in the assay on 786-0 [4]; 10.4% in the assay on 786-0 [5]; 1.5% in the assay with 786-0 [8]; 2.3% in the assay on 786-0 [9]; 6.6% in the assay with 786-0 [10]. Further, the Activity in the assay on 786-0 [12] is recorded as 7.5%; in the assay on 786-0 [13], 4%; in the assay with 786-0 [14], 70.7%; in the assay on 786-0 [15], 2%; with 786-0 [20], 2.8%; in the assay on 786-0 [21], 0.6%. In addition, the Activity in the assay on 786-0 [22] is 11.2%; in the assay with 786-0 [24], 3.5%; in the assay with 786-0 [25] it was 1.4%; in the assay on 786-0 [26], 45.5%; with 786-0 [27], 2%; in the assay with 786-0 [28], 1.5%. Besides, the Activity with 786-0 [29] came out at 36.7%; with 786-0 [30], 8.9%; in the assay on 786-0 [31] it was 28.8%; in the assay with 786-0 [32], 4.4%; with 786-0 [33], 27.4%; in the assay with 786-0 [34], 1.7%. The Activity was found to be 2.7% with 786-0 [35], 1.8% in the assay on 786-0 [36] and 6% in the assay on 786-0 [38]. Also, the values for the viability at 10 µM in the assay with 786-0 [6], with 786-0 [16] and in the assay with 786-0 [17] were 6.6%, 0.5% and 60.9%, respectively. The viability at 5 µM in the assay with 786-0 [7] was determined as 87%; with 786-0 [23] it was 85.9%; with 786-0 [37], 86.1%. For the same molecule, the negative logarithm of the IC50 (pIC50) in the assay with 786-0 [1] is 5.05; in the assay on ACHN, 4.85; in the assay on OS-RC-2 it was 4.89. The viability at 2.5 µM in the assay with 786-0 [11] worked out at 93.7%; in the assay on 786-0 [18] it was 93.3%; in the assay with 786-0 [19] it was 90.7%.

As for `CC[C@H](C)/C=C(C)/C=C/C1=CC2=C(Cl)C(=O)[C@]3(C)OC(=O)/C(=C(\C)O)[C@]3(O)[C@@]23O[C@H]3O1`, the pIC50 in the assay on 786-0 [1] is 5.00; with ACHN, 4.89; in the assay on OS-RC-2 it was 4.42.

For the origin of these results see ChEMBL document CHEMBL4251681, “Isochromophilones A-F, Cytotoxic Chloroazaphilones from the Marine Mangrove Endophytic Fungus Diaporthe sp. SCSIO 41011” (J Nat Prod, 2018).
